Measured values from patent publication US12358886B2, “Heterocyclic compounds for use in the treatment of cancer” (Artios Pharma Limited, priority 2019, dated 2025).

Biological target: Polθ protein (amino acids 2-2590) (Homo sapiens, UniProt O75417)
Test: Polθ full length enzyme potency assay (PicoGreen)
Conditions: Polθ IC50 (nM), full length N-His, C-term FLAG tagged Polθ, PicoGreen fluorescence, 12 point concentration response
Experimental: Polθ Full Length Enzyme Potency Assay
PicoGreen assay was used to measure the ability of compounds to inhibit the activity of Polθ in vitro. […] DMSO concentration was maintained at 1% by back filling with DMSO solution. […] This was dispensed into each well of the compound plate using a VIAFLO 16 channel manual pipette (Integra) and pre-incubated at rt for 30 min. 3 μL of 2× working solution of dNTPs (40 μM) (dATP, dCTP, dGTP, dTTP; Sigma D6500, D4635, D4010, T0251) diluted in assay buffer was then added and the reaction incubated for 60 min at rt. The reaction was stopped by addition of 10 mM EDTA, 25 mM Tris pH 7.5 and 1:200 dilution of PicoGreen dye (Invitrogen P7581).

Sequence of Polθ protein (amino acids 2-2590) (O75417 2-2590): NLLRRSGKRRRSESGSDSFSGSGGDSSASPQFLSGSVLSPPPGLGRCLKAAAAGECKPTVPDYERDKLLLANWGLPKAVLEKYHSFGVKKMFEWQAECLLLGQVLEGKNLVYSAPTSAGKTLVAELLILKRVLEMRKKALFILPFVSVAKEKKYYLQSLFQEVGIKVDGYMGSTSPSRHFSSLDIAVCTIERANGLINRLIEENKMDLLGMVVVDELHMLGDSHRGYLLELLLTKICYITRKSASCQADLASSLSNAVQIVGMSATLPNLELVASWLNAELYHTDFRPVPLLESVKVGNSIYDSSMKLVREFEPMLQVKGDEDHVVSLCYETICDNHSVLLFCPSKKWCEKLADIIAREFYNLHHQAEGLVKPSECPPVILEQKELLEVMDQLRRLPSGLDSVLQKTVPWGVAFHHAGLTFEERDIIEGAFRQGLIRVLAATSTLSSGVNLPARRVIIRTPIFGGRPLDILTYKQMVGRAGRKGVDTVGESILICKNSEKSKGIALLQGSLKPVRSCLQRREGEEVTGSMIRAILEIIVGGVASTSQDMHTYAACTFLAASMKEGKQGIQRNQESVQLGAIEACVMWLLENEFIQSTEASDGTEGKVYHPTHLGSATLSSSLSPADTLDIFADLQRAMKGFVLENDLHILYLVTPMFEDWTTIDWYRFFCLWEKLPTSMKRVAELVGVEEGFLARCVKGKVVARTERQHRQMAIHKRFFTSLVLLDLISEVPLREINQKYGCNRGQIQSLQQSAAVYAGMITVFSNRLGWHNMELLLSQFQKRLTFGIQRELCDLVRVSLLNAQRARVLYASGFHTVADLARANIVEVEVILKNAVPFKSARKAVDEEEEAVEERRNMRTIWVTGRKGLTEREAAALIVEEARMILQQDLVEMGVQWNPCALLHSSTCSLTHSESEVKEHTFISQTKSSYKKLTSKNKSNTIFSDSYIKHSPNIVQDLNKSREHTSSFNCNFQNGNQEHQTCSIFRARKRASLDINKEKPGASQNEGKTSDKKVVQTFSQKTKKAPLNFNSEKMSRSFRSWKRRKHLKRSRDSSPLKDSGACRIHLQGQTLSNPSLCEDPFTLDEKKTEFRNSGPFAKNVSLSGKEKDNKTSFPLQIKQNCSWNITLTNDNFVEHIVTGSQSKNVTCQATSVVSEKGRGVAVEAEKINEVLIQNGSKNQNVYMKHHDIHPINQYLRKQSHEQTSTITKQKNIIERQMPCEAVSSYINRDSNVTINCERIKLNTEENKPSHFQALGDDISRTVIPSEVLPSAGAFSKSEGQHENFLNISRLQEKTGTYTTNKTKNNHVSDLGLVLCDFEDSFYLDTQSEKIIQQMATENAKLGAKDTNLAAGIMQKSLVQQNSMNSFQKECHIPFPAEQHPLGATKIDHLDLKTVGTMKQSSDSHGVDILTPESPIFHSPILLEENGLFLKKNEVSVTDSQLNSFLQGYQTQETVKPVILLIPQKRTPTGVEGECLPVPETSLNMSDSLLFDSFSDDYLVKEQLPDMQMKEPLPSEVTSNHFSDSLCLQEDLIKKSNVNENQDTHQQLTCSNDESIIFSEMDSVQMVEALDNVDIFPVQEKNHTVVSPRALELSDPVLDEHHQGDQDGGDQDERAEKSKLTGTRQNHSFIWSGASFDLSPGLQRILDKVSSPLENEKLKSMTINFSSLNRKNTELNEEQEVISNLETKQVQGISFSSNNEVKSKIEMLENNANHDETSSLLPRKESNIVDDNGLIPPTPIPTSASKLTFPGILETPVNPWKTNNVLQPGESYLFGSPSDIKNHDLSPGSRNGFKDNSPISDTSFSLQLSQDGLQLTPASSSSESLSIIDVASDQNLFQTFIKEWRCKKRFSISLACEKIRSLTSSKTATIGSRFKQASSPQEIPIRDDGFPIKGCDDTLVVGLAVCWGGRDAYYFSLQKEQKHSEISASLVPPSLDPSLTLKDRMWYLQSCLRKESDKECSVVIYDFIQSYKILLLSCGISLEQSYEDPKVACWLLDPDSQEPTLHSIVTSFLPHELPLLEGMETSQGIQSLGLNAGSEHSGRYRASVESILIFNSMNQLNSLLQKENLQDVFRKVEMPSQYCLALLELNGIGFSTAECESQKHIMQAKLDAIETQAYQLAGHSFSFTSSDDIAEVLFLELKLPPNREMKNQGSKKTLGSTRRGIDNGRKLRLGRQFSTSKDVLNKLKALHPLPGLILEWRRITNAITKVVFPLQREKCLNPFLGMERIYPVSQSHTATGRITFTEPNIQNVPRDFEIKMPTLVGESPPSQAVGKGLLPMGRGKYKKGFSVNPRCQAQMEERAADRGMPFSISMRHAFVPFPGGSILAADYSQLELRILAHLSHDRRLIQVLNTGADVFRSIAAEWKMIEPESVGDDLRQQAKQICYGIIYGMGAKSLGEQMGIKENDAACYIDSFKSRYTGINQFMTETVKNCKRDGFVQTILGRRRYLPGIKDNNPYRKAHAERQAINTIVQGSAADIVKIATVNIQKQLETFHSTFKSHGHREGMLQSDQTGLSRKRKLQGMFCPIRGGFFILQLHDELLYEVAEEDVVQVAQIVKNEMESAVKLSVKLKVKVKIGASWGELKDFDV

Row | IC50 [nM] | Compound
1 | 11 | Cc1cc(C(F)(F)F)cc(N2C(=O)N(CC3CN(C)CCO3)C[C@H]2C(=O)N(C)c2ccc(F)c(Cl)c2F)n1 (stereo partly drawn) [Example 219, (4S)—N-(3-Chloro-2,4-difluorophenyl)-N-methyl-3-(6-methyl-4-(trifluoromethyl)pyridin-2-yl)-1-((4-methylmorpholin-2-yl)methyl)-2-oxoimidazolidine-4-carboxamide]
2 | 7 | Cc1cc(C(F)(F)F)cc(N2C(=O)N(CCN3CCN(C)C(=O)C3)C[C@H]2C(=O)N(C)c2ccc(F)c(Cl)c2F)n1 [Example 210, (S)-N-(3-Chloro-2,4-difluorophenyl)-N-methyl-1-(2-(4-methyl-3-oxopiperazin-1-yl)ethyl)-3-(6-methyl-4-(trifluoromethyl)pyridin-2-yl)-2-oxoimidazolidine-4-carboxamide]
3 | 12 | Cc1cc(C(F)(F)F)cc(N2C(=O)N(CCN3CCC3)C[C@H]2C(=O)N(C)c2ccc(F)c(Cl)c2)n1 [Example 200, (S)-1-(2-(Azetidin-1-yl)ethyl)-N-(3-chloro-4-fluorophenyl)-N-methyl-3-(6-methyl-4-(trifluoromethyl)pyridin-2-yl)-2-oxoimidazolidine-4-carboxamide]
4 | 3 | CC(=O)N1CCN(CCN2C[C@@H](C(=O)N(C)c3ccc(F)c(Cl)c3F)N(c3cc(C(F)(F)F)cc(C)n3)C2=O)CC1 [Example 204, (S)-1-(2-(4-Acetylpiperazin-1-yl)ethyl)-N-(3-chloro-2,4-difluoro-phenyl)-N-methyl-3-(6-methyl-4-(trifluoromethyl)pyridin-2-yl)-2-oxoimidazolidine-4-carboxamide]
5 | 16 | Cc1cc(C(F)(F)F)cc(N2C(=O)N(CC3CN(C)C(=O)O3)C[C@H]2C(=O)N(C)c2ccc(F)c(Cl)c2F)n1 (single isomer, unassigned; isomer 2) [Example 230]
6 | 10 | Cc1cc(C(F)(F)F)cc(N2C(=O)N(CC(=O)N(C)C)C[C@H]2C(=O)N(C)c2ccc(F)c(Cl)c2)n1 [Example 185, (S)-N-(3-Chloro-4-fluorophenyl)-1-(2-(dimethylamino)-2-oxoethyl)-N-methyl-3-(6-methyl-4-(trifluoromethyl)pyridin-2-yl)-2-oxoimidazolidine-4-carboxamide]
7 | 9 | Cc1cc(C(F)(F)F)cc(N2C(=O)N(CC3(CO)COC3)C[C@H]2C(=O)N(C)c2ccc(F)c(Cl)c2F)n1 [Example 186, (S)-N-(3-Chloro-2,4-difluoro-phenyl)-1-((3-(hydroxymethyl)-oxetan-3-yl)methyl)-N-methyl-3-(6-methyl-4-(trifluoromethyl)-pyridin-2-yl)-2-oxoimidazolidine-4-carboxamide]
8 | 12 | CNC(=O)CCN1C[C@@H](C(=O)N(C)c2ccc(F)c(Cl)c2)N(c2cc(C(F)(F)F)cc(C)n2)C1=O [Example 191, (S)—N-(3-Chloro-4-fluorophenyl)-N-methyl-3-(6-methyl-4-(trifluoromethyl)pyridin-2-yl)-1-(3-(methylamino)-3-oxopropyl)-2-oxoimidazolidine-4-carboxamide]
9 | 28 | Cc1cc(C(F)(F)F)cc(N2C(=O)N(CCN3CCCC3CO)C[C@H]2C(=O)N(C)c2ccc(F)c(Cl)c2)n1 (single isomer, unassigned; isomer 1) [Example 198]

Continued, compound first:

Row | Compound | IC50 [nM]
10 | Cc1cc(C(F)(F)F)cc(N2C(=O)[C@@H](O)[C@@H](O)[C@H]2C(=O)N(C)c2ccc(Cl)cc2F)n1 [Example 165, (2S,3S,4S)—N-(4-Chloro-2-fluorophenyl)-3,4-dihydroxy-N-methyl-1-(6-methyl-4-(trifluoromethyl)pyridin-2-yl)-5-oxopyrrolidine-2-carboxamide] | 20
11 | CCN(C(=O)[C@@H]1C[C@H](N(C)[C@@H]2COCC[C@H]2O)CN1c1cc(C(F)(F)F)cc(C)n1)c1ccc(F)c(F)c1 [Example 140, (2S,4S)-N-(3,4-Difluorophenyl)-N-ethyl-4-(((3R,4R)-4-hydroxytetrahydro-2H-pyran-3-yl)(methyl)amino)-1-(6-methyl-4-(trifluoromethyl)pyridin-2-yl)pyrrolidine-2-carboxamide] | 60
12 | Cc1cc(C(F)(F)F)cc(N2C(=O)N(CCCN(C)C)C[C@H]2C(=O)N(C)c2ccc(F)c(Cl)c2)n1 [Example 183, (S)-N-(3-Chloro-4-fluorophenyl)-1-(3-(dimethylamino)propyl)-N-methyl-3-(6-methyl-4-(trifluoromethyl)pyridin-2-yl)-2-oxoimidazolidine-4-carboxamide] | 24
13 | CCN(C(=O)[C@@H]1C[C@H](O)CN1c1nc(C)cc(C(F)(F)F)n1)c1ccc(F)c(Cl)c1 [Example 64, (2S,4S)—N-(3-Chloro-4-fluorophenyl)-N-ethyl-4-hydroxy-1-(4-methyl-6-(trifluoromethyl)-pyrimidin-2-yl)pyrrolidine-2-carboxamide] | 166
14 | Cc1cc(C(F)(F)F)cc(N2C(=O)C[C@@H](O)[C@H]2C(=O)N(C)c2ccc(F)c(Cl)c2)n1 [Example 80, (2S,3R)—N-(3-Chloro-4-fluorophenyl)-3-hydroxy-N-methyl-1-(6-methyl-4-(trifluoromethyl)-pyridin-2-yl)-5-oxopyrrolidine-2-carboxamide] | 6
15 | CCN(C(=O)[C@@H]1C[C@H](N2CCOC(CO)C2)CN1c1nc(C)cc(C(F)(F)F)c1C#N)c1cccc(Cl)c1 (stereo partly drawn) [Example 147, (2S,4S)-N-(3-Chlorophenyl)-1-(3-cyano-6-methyl-4-(trifluoromethyl)pyridin-2-yl)-N-ethyl-4-(2-(hydroxymethyl)morpholino)pyrrolidine-2-carboxamide] | 28
16 | Cc1cc(C(F)(F)F)c(C#N)c(N2C[C@@H](N3CCOC(CO)C3)C[C@H]2C(=O)N(C)c2ccc(F)c(Cl)c2)n1 (stereo partly drawn) [Example 151, (2S,4S)-N-(3-Chloro-4-fluorophenyl)-1-(3-cyano-6-methyl-4-(trifluoromethyl)pyridin-2-yl)-4-(2-(hydroxymethyl)morpholino)-N-methylpyrrolidine-2-carboxamide] | 23
17 | Cc1cc(C(F)(F)F)cc(N2C(=O)OC[C@H]2C(=O)N(C)c2ccc(C3CC3)c(Cl)c2)n1 [Example 173, (S)—N-(3-Chloro-4-cyclopropylphenyl)-N-methyl-3-(6-methyl-4-(trifluoromethyl)pyridin-2-yl)-2-oxooxazolidine-4-carboxamide] | 13
18 | Cc1cc(C)c(C#N)c(N2C[C@@H](O)C[C@H]2C(=O)N(C)c2cccc(C(F)F)c2)n1 [Example 12, (2S,4S)-1-(3-Cyano-4,6-dimethylpyridin-2-yl)-N-(3-(difluoromethyl)phenyl)-4-hydroxy-N-methylpyrrolidine-2-carboxamide] | 710
19 | CCN(C(=O)[C@@H]1C[C@H](N[C@@H]2CCC[C@H]2O)CN1c1cc(C(F)(F)F)cc(C)n1)c1ccc(F)c(F)c1 [Example 133, (2S,4S)-N-(3,4-Difluorophenyl)-N-ethyl-4-(((1R,2R)-2-hydroxycyclopentyl)amino)-1-(6-methyl-4-(trifluoromethyl)pyridin-2-yl)pyrrolidine-2-carboxamide] | 122
20 | Cc1cc(C(F)(F)F)cc(N2C(=O)OC[C@H]2C(=O)N(C)c2ccc3cccnc3c2)n1 [Example 178, (S)—N-Methyl-3-(6-methyl-4-(trifluoromethyl)pyridin-2-yl)-2-oxo-N-(quinolin-7-yl)oxazolidine-4-carboxamide] | 833
21 | Cc1cc(C(F)(F)F)cc(N2C(=O)[C@@H](O)[C@@H](O)[C@H]2C(=O)N(C)c2ccc(F)c(C)c2)n1 [Example 67, (2S,3S,4S)-N-(4-Fluoro-3-methyl-phenyl)-3,4-dihydroxy-N-methyl-1-(6-methyl-4-(trifluoromethyl)pyridin-2-yl)-5-oxopyrrolidine-2-carboxamide] | 6
22 | Cc1cc(C(F)(F)F)cc(N2C(=O)OC[C@H]2C(=O)N(C)c2ccc3cc[nH]c3c2)n1 [Example 126, (S)—N-(1H-Indol-6-yl)-N-methyl-3-(6-methyl-4-(trifluoromethyl)pyridin-2-yl)-2-oxooxazolidine-4-carboxamide] | 11
23 | CCN(C(=O)[C@@H]1C[C@H](N[C@@H]2COCC[C@H]2O)CN1c1cc(C(F)(F)F)cc(C)n1)c1ccc(F)c(F)c1 [Example 132, (2S,4S)-N-(3,4-Difluorophenyl)-N-ethyl-4-(((3R,4R)-4-hydroxytetrahydro-2H-pyran-3-yl)amino)-1-(6-methyl-4-(trifluoromethyl)pyridin-2-yl)pyrrolidine-2-carboxamide] | 156
24 | COc1cc(N(C)C(=O)[C@@H]2COC(=O)N2c2cc(C(F)(F)F)cc(C)n2)ccc1F [Example 90, (S)-N-(4-Fluoro-3-methoxyphenyl)-N-methyl-3-(6-methyl-4-(trifluoromethyl)pyridin-2-yl)-2-oxooxazolidine-4-carboxamide] | 226
25 | CCN(C(=O)[C@H]1C[C@@H](N2CCNCC2)CN1c1nc(C)cc(C)c1C#N)c1cccc(C)c1 (stereo in doubt) [Example 50, (2R,4R)-1-(3-Cyano-4,6-dimethylpyridin-2-yl)-N-ethyl-4-(piperazin-1-yl)-N-(m-tolyl)-pyrrolidine-2-carboxamide] | 232
26 | Cc1cccc(N(C)C(=O)[C@@H]2[C@H](O)[C@H](O)CN2c2nc(C)cc(C(F)(F)F)c2C#N)c1 [Example 54, (2S,3S,4R)-1-(3-Cyano-6-methyl-4-(trifluoromethyl)pyridin-2-yl)-3,4-dihydroxy-N-methyl-N-(m-tolyl)pyrrolidine-2-carboxamide] | 13

Same assay, conditions: read-out: Polθ IC50; full length N-His, C-term FLAG tagged Polθ, PicoGreen fluorescence, 12 point concentration response

Row | IC50 [nM] | Compound
27 | 95 | CCN(C(=O)[C@@H]1C[C@H](O)C(=O)N1c1cc(C(F)(F)F)cc(C)n1)c1ccc(F)c(Cl)c1 [Example 75, (2S,4S)—N-(3-Chloro-4-fluorophenyl)-N-ethyl-4-hydroxy-1-(6-methyl-4-(trifluoromethyl)pyridin-2-yl)-5-oxopyrrolidine-2-carboxamide]
28 | 16 | Cc1cc(C(F)(F)F)c(C#N)c(N2C[C@@H](O)C[C@H]2C(=O)N(C)c2ccc(F)c(Cl)c2)n1 [Example 5, (2S,4S)—N-(3-Chloro-4-fluorophenyl)-1-(3-cyano-6-methyl-4-(trifluoro-methyl)pyridin-2-yl)-4-hydroxy-N-methylpyrrolidine-2-carboxamide]
